In patent publication US9663528B2, “Substituted 1,2,3,4,6,8,12,12a-octahydro-1,4-methanodipyrido[1,2-a:1',2'-d]pyrazines and methods for treating viral infections” (priority 2012, dated 2017):
Where two headings read alike, the source gives them in different places.

Tests used:
[1] = Cytotoxicity (CC50) in MT-4 cells, mock-infected, CellTiter-Glo; conditions: human
Method: For the antiviral assay utilizing MT4 cells, 0.4 μL of […] test concentration of 3-fold serially diluted compound in DMSO was added to 40 μL of cell growth medium (RPMI 1640, 10% FBS, 1% penicilline/Streptomycine, 1% L-Glutamine, 1% HEPES) in each well of 384-well assay plates (10 concentrations) in quidruplicate.
1 mL aliquots of 2×10^6 MT4 cells are pre-infected for 1 and 3 hours respectively at 37° C. with 25 μL (MT4) or of either cell growth medium (mock-infected) or a fresh 1:250 dilution of an HIV-IIIb concentrated ABI stock (0.004 m.o.i. for MT4 cells). Infected and uninfected cells are diluted in cell growth medium and 35 μL of 2000 (for MT4) cells is added to each well of the assay plates.
Assay plates were then incubated in a 37° C. incubator. After 5 days of incubation, 25 μL of 2× concentrated CellTiter-Glo™ Reagent (catalog #G7573, Promega Biosciences, Inc., Madison, Wis.) was added to each well of the assay plate. Cell lysis was carried out by incubating at room temperature for 2-3 minutes, and then chemiluminescence was read using the Envision reader (PerkinElmer).

PXR = PXR (Homo sapiens (Human), UniProt O75469); assay: Human PXR activation assay (luciferase reporter gene assay, DPX2 cells); format: cell-based; conditions: human
Method: A stably transformed tumor cell line (DPX2) was plated on 96-well microtiter plates. DPX2 cells harbor the human PXR gene (NR112) and a luciferase reporter gene linked to two promoters identified in the human CYP3A4 gene, namely XREM and PXRE. […] The number of viable cells was determined and the reporter gene activity was assessed. Positive control: […]

[2] = MT-4 cells, mock-infected, CC50 nM in MT-4, MT-4 cells, 5 days incubation
[3] = 15 μM, relative to maximum fold induction by 10 or 20 μM rifampicin, DPX2 cells, 24 hours, read-out: % Emax at 15 μM

Chain of PXR (O75469 whole entry): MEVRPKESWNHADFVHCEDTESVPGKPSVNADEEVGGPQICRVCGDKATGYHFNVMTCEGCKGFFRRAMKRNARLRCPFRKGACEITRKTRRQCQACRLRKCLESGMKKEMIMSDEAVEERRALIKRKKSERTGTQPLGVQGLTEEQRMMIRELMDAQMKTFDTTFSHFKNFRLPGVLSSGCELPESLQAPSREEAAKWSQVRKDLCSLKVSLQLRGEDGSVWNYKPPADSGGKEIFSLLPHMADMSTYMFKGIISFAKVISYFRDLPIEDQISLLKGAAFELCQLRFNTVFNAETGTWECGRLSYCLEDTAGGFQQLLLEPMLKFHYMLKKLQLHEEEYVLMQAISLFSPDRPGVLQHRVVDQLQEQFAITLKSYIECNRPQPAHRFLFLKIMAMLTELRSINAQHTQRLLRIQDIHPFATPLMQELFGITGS

SMILES: O=C(NCc1c(F)cc(F)cc1F)c1cn2c(c(O)c1=O)C(=O)N1[C@H]3C[C@H](C3)[C@@H]1C2 (single isomer, unassigned) [Compound 97]
- CC50 at 5 days [1, 2]: 17300 nM
- Emax at 24 h, 15 µM (PXR; [3]): 9%

SMILES: O=C(NCc1ccc(F)cc1F)c1cn2c(c(O)c1=O)C(=O)N1C(C2)[C@H]2CC[C@@H]1C2 (stereo in doubt) [Compound 38, (1S,4R,12aR)-N-(2,4-difluorobenzyl)-7-hydroxy-6,8-dioxo-1,2,3,4,6,8,12,12a-octahydro-1,4-methanodipyrido[1,2-a:1′,2′-d]pyrazine-9-carboxamide]
- CC50 at 5 days ([1]; CC50 nM in MT-4): 10200 nM
- Emax at 24 h, 15 µM (PXR; [3]): 7%

SMILES: O=C(NCc1c(F)cc(F)cc1F)c1cn2c(c(O)c1=O)C(=O)N1[C@H]3CC(F)C(C3)[C@@H]1C2 (stereo in doubt) [Compound 56, (1R,2S,4R,12aR)-2-fluoro-7-hydroxy-6,8-dioxo-N-(2,4,6-trifluorobenzyl)-1,2,3,4,6,8,12,12a-octahydro-1,4-methanodipyrido[1,2-a:1′,2′-d]pyrazine-9-carboxamide]
- CC50 at 5 days ([1]; CC50 nM in MT-4): 17200 nM
- Emax at 24 h, 15 µM (PXR): 3%

SMILES: O=C(NCc1ccc(F)cc1F)c1cn2c(c(O)c1=O)C(=O)N1C(C2)[N@@]2CC[C@@H]1C2 (stereo partly drawn) [Compound 4, (1S,4R)-N-(2,4-difluorobenzyl)-7-hydroxy-6,8-dioxo-3,4,6,8,12,12a-hexahydro-2H-1,4-methanopyrido[1′,2′:4,5]pyrazino[1,2-a]pyrimidine-9-carboxamide]
- CC50 at 5 days ([1]; CC50 nM in MT-4): 45800 nM
- Emax at 24 h, 15 µM (PXR): 3%

SMILES: C[C@@H](NC(=O)c1cn2c(c(O)c1=O)C(=O)N1[C@H]3CC[C@H](C3)O[C@@H]1C2)c1ccc(F)cc1 [Compound 10, (2R,5S,13aR)-N—((R)-1-(4-fluorophenyl)ethyl)-8-hydroxy-7,9-dioxo-2,3,4,5,7,9,13,13a-octahydro-2,5-methanopyrido[1′,2′:4,5]pyrazino[2,1-b][1,3]oxazepine-10-carboxamide]
- CC50 at 5 days ([1]; CC50 nM in MT-4): 3670 nM
- Emax at 24 h, 15 µM (PXR): 19%

SMILES: O=C(NCc1ccc(F)cc1)c1cn2c(c(O)c1=O)C(=O)N1[C@@H]3CC[C@@H](C3)O[C@H]1C2 [Compound 15, (2S,5R,13aS)-N-(4-fluorobenzyl)-8-hydroxy-7,9-dioxo-2,3,4,5,7,9,13,13a-octahydro-2,5-methanopyrido[1′,2′:4,5]pyrazino[2,1-b][1,3]oxazepine-10-carboxamide]
- CC50 at 5 days ([1]; CC50 nM in MT-4): 16300 nM
- Emax at 24 h, 15 µM (PXR): 20%

SMILES: O=C(NCc1cccc(F)c1F)c1cn2c(c(O)c1=O)C(=O)N1[C@@H]3CC[C@@H](C3)O[C@H]1C2 [Compound 16, (2S,5R,13aS)-N-(2,3-difluorobenzyl)-8-hydroxy-7,9-dioxo-2,3,4,5,7,9,13,13a-octahydro-2,5-methanopyrido[1′,2′:4,5]pyrazino[2,1-b][1,3]oxazepine-10-carboxamide]
- CC50 at 5 days ([1]; CC50 nM in MT-4): 13600 nM
- Emax at 24 h, 15 µM (PXR): 17%

SMILES: O=C(NCc1ccc(Cl)cc1F)c1cn2c(c(O)c1=O)C(=O)N1[C@@H]3CC[C@@H](C3)O[C@H]1C2 [Compound 17, (2S,5R,13aS)-N-(4-chloro-2-fluorobenzyl)-8-hydroxy-7,9-dioxo-2,3,4,5,7,9,13,13a-octahydro-2,5-methanopyrido[1′,2′:4,5]pyrazino[2,1-b][1,3]oxazepine-10-carboxamide]
- CC50 at 5 days ([1]; CC50 nM in MT-4): 6610 nM
- Emax at 24 h, 15 µM (PXR): 7%

SMILES: O=C(NCc1ccc(F)c(F)c1)c1cn2c(c(O)c1=O)C(=O)N1[C@@H]3CC[C@@H](C3)O[C@H]1C2 [Compound 18, (2S,5R,13aS)-N-(3,4-difluorobenzyl)-8-hydroxy-7,9-dioxo-2,3,4,5,7,9,13,13a-octahydro-2,5-methanopyrido[1′,2′:4,5]pyrazino[2,1-b][1,3]oxazepine-10-carboxamide]
- CC50 at 5 days ([1]; CC50 nM in MT-4): 10300 nM
- Emax at 24 h, 15 µM (PXR): 4%

SMILES: O=C(NCc1ccc(F)cc1F)c1cn2c(c(O)c1=O)C(=O)N1C(C2)[N@]2CCC[C@H]1C2 (stereo partly drawn) [Compound 19, (1R,5S)-N-(2,4-difluorobenzyl)-8-hydroxy-7,9-dioxo-2,3,4,5,7,9, 13,13a-octahydro-1,5-methanopyrido[1′,2′:4,5]pyrazino[1,2-a][1,3]diazepine-10-carboxamide]
- CC50 at 5 days ([1]; CC50 nM in MT-4): 38700 nM
- Emax at 24 h, 15 µM (PXR): 2%

SMILES: O=C(NCc1ccc(F)cc1F)c1cn2c(c(O)c1=O)C(=O)N1C(C2)[N@@]2CCC[C@@H]1C2 (stereo partly drawn) [Compound 20, (1S,5R)-N-(2,4-difluorobenzyl)-8-hydroxy-7,9-dioxo-2,3,4,5,7,9,13,13a-octahydro-1,5-methanopyrido[1′,2′:4,5]pyrazino[1,2-a][1,3]diazepine-10-carboxamide]
- CC50 at 5 days ([1]; CC50 nM in MT-4): 28000 nM
- Emax at 24 h, 15 µM (PXR): 2%

SMILES: O=C(NCc1ccccc1F)c1cn2c(c(O)c1=O)C(=O)N1[C@@H]3CC[C@@H](C3)O[C@H]1C2 [Compound 23, (2S,5R,13aS)-N-(2-fluorobenzyl)-8-hydroxy-7,9-dioxo-2,3,4,5,7,9,13,13a-octahydro-2,5-methanopyrido[1′,2′:4,5]pyrazino[2,1-b][1,3]oxazepine-10-carboxamide]
- CC50 at 5 days ([1]; CC50 nM in MT-4): 13400 nM
- Emax at 24 h, 15 µM (PXR): 45%

SMILES: O=C(NC1(c2ccc(F)cc2F)CC1)c1cn2c(c(O)c1=O)C(=O)N1C(C2)O[C@H]2CCC[C@@H]1C2 (stereo partly drawn) [Compound 28, (2S,6R)-N-(1-(2,4-difluorophenyl)cyclopropyl)-9-hydroxy-8,10-dioxo-3,4,5,6,8,10,14,14a-octahydro-2H-2,6-methanopyrido[1′,2′:4,5]pyrazino[2,1-b][1,3]oxazocine-11-carboxamide]
- CC50 at 5 days ([1]; CC50 nM in MT-4): 18700 nM
- Emax at 24 h, 15 µM (PXR): 6%

SMILES: O=C(NC1(c2ccc(F)cc2F)CC1)c1cn2c(c(O)c1=O)C(=O)N1C(C2)O[C@@H]2CCC[C@H]1C2 (stereo partly drawn) [Compound 29, (2R,6S)-N-(1-(2,4-difluorophenyl)cyclopropyl)-9-hydroxy-8,10-dioxo-3,4,5,6,8,10,14,14a-octahydro-2H-2,6-methanopyrido[1′,2′:4,5]pyrazino[2,1-b][1,3]oxazocine-11-carboxamide]
- CC50 at 5 days ([1]; CC50 nM in MT-4): 9450 nM
- Emax at 24 h, 15 µM (PXR): 3%

SMILES: O=C(NC1(c2ccc(F)cc2F)CCC1)c1cn2c(c(O)c1=O)C(=O)N1C(C2)O[C@H]2CC[C@@H]1C2 (stereo partly drawn) [Compound 32, (2S,5R)-N-(1-(2,4-difluorophenyl)cyclobutyl)-8-hydroxy-7,9-dioxo-2,3,4,5,7,9,13,13a-octahydro-2,5-methanopyrido[1′,2′:4,5]pyrazino[2,1-b][1,3]oxazepine-10-carboxamide]
- CC50 at 5 days ([1]; CC50 nM in MT-4): 4680 nM
- Emax at 24 h, 15 µM (PXR): 14%

SMILES: O=C(NC1(c2ccc(F)cc2F)CCCC1)c1cn2c(c(O)c1=O)C(=O)N1C(C2)O[C@H]2CC[C@@H]1C2 (stereo partly drawn) [Compound 33, (2S,5R)-N-(1-(2,4-difluorophenyl)cyclopentyl)-8-hydroxy-7,9-dioxo-2,3,4,5,7,9,13,13a-octahydro-2,5-methanopyrido[1′,2′:4,5]pyrazino[2,1-b][1,3]oxazepine-10-carboxamide]
- CC50 at 5 days ([1]; CC50 nM in MT-4): 3970 nM
- Emax at 24 h, 15 µM (PXR): 17%

SMILES: C[C@H]1CO[C@@H]2Cn3cc(C(=O)NC4(c5ccc(F)cc5F)CC4)c(=O)c(O)c3C(=O)N12 [Compound 37, (3S,11aR)-N-(1-(2,4-difluorophenyl)cyclopropyl)-6-hydroxy-3-methyl-5,7-dioxo-2,3,5,7,11,11a-hexahydrooxazolo[3,2-a]pyrido[1,2-d]pyrazine-8-carboxamide]
- CC50 at 5 days [1, 2]: 19500 nM
- Emax at 24 h, 15 µM (PXR; [3]): 2%

SMILES: C[C@@H](NC(=O)c1cn2c(c(O)c1=O)C(=O)N1[C@H]3CC[C@H](C3)[C@@H]1C2)c1ccc(F)cc1F [Compound 43, (12aR)-N—((R)-1-(2,4-difluorophenyl)ethyl)-7-hydroxy-6,8-dioxo-1,2,3,4,6,8,12,12a-octahydro-1,4-methanodipyrido[1,2-a:1′,2′-d]pyrazine-9-carboxamide]
- CC50 at 5 days ([1]; CC50 nM in MT-4): 10300 nM
- Emax at 24 h, 15 µM (PXR): 18%

SMILES: O=C(NCc1ccc(F)c(F)c1F)c1cn2c(c(O)c1=O)C(=O)N1[C@@H]3CC[C@@H](C3)O[C@H]1C2 [Compound 44, (13aS)-8-hydroxy-7,9-dioxo-N-(2,3,4-trifluorobenzyl)-2,3,4,5,7,9,13,13a-octahydro-2,5-methanopyrido[1′,2′:4,5]pyrazino[2,1-b][1,3]oxazepine-10-carboxamide]
- CC50 at 5 days ([1]; CC50 nM in MT-4): 9870 nM
- Emax at 24 h, 15 µM (PXR): 4%

SMILES: O=C(NCc1c(F)cccc1F)c1cn2c(c(O)c1=O)C(=O)N1[C@@H]3CC[C@@H](C3)O[C@H]1C2 [Compound 46, (13aS)-N-(2,6-difluorobenzyl)-8-hydroxy-7,9-dioxo-2,3,4,5,7,9,13,13a-octahydro-2,5-methanopyrido[1′,2′:4,5]pyrazino[2,1-b][1,3]oxazepine-10-carboxamide]
- CC50 at 5 days ([1]; CC50 nM in MT-4): 19300 nM
- Emax at 24 h, 15 µM (PXR): 34%

SMILES: O=C(N[C@@H](c1ccc(F)cc1F)C(F)(F)F)c1cn2c(c(O)c1=O)C(=O)N1C(C2)O[C@@H]2CC[C@H]1C2 (stereo partly drawn) [Compound 54, (2R,5S)-N—((S)-1-(2,4-difluorophenyl)-2,2,2-trifluoroethyl)-8-hydroxy-7,9-dioxo-2,3,4,5,7,9,13,13a-octahydro-2,5-methanopyrido[1′,2′:4,5]pyrazino[2,1-b][1,3]oxazepine-10-carboxamide]
- CC50 at 5 days ([1]; CC50 nM in MT-4): 3240 nM
- Emax at 24 h, 15 µM (PXR): 2%
